Consider two compounds from article PMC8414367, “(E)-7-Ethylidene-lithocholic Acid (7-ELCA) Is a Potent Dual Farnesoid X Receptor (FXR) Antagonist and GPBAR1 Agonist Inhibiting FXR-Induced Gene Expression in Hepatocytes and Stimulating Glucagon-like Peptide-1 Secretion From Enteroendocrine Cells” (Frontiers in Pharmacology, 2021).

In one data set the test system is various cell lines. Put plainly: MTS viability assay, summary over cell lines. It counts as cell-based. The settings on record: 24 h, read-out: IC50, cellular viability. On the procedure: (§1) The potential cytotoxicity of 7-alkylated chenodeoxycholic acid derivatives were assessed in different human (HepG2, HepaRG and Huh7) and murine (AML12) hepatocyte-derived cell lines. For this purpose, hepatic cells were treated at increasing concentration for 24h and analyzed by MTS viability assay.
(§2) Table S2. Cell viability was determined using the Cell Titer 96 Aqueous One Solution Cell Proliferation Assay (MTS assay) after treatment with test compounds for 24 h in four different hepatic cell lines. Vehicle (0.1% DMSO) and background (10% SDS; v/v, toxic control) controls of cell viability were set to be 100% and 0%, respectively.

The subject of another data set is AML12. Put plainly: MTS viability assay. Particulars: Mus musculus; AML12, 24 h, MTS; read-out: IC50 (µM), cell viability. It counts as cell-based, murine. As to the method:
as §1, §2

A short description of data set [1]: MTS viability assay. Type of data set: cell-based, murine. The settings on record: mouse, AML12 cells; AML12, 24 h, vehicle = 100%. As to the method:
as §1, §2

The subject of a further data set is HepaRG. In words: MTS viability assay. Type of data set: cell-based, human. Particulars: Homo sapiens, 24 h, MTS, read-out: IC50 (µM), cell viability. As to the method: as §1, §2
(Tetrazolium dyes change colour on reduction, which living cells bring about.)

Data set [2] in a line: MTS viability assay. It counts as cell-based, human. The settings on record: human, vehicle = 100%. On the procedure: as §1, §2
Another data set deals with HepG2. In words: MTS viability assay. Type of data set: cell-based, human. The settings on record: Homo sapiens; HepG2, 24 h, MTS; read-out: IC50 (µM), cell viability. On the procedure: as §1, §2
A further data set relates to Huh7. In words: MTS viability assay. It counts as cell-based, human. Particulars: Homo sapiens, Huh-7; Huh7, 24 h, MTS; read-out: IC50 (µM), cell viability. On the procedure: as §1, §2
The target of the next data set is T1, GPBAR1 (Homo sapiens, UniProt Q8TDU6).
T1 construct: host or cells: HepG2
T1 sequence (Q8TDU6 1-330): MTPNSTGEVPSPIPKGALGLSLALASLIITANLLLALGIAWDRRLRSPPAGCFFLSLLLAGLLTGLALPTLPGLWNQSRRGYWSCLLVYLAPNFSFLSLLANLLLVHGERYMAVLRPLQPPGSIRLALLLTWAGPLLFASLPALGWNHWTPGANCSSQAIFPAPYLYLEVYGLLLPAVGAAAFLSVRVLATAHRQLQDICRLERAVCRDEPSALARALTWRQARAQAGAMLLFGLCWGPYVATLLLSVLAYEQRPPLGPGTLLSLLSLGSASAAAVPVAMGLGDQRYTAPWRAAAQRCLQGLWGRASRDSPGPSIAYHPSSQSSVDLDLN
Put plainly: GPBAR1 CRE-luc luciferase reporter assay in HepG2 cells. It counts as cell-based. The settings on record: 10 µM, 5 h, LCA 10 µM set as 100%. As to the method: (C) Effects of LCA and 7-ELCA (both at 10 µM) on intracellular generation of cAMP in differentiated NCI-H716 cells after 30 min treatment. The increase in cAMP level (ΔcAMP) is presented as the difference between cAMP concertation in the treated sample after subtraction of the cAMP in the nontreated control sample. (D) Concentration-response curves for activation of GPBAR1 by LCA and 7-ELCA. EC50 values were calculated using nonlinear fitting of concentration-response curves. […] GLP-1 was normalized to protein concentration and GPBAR1 mRNA expression to GAPDH mRNA. Data are presented as a fold to control nontreated (NT) samples. Forskolin (FSK, 10 µM) was used as a GPBAR1-independent activator of cAMP production.

Data set [3] addresses T2, human FXR (Homo sapiens, UniProt Q96RI1).
T2 sequence (Q96RI1 1-486): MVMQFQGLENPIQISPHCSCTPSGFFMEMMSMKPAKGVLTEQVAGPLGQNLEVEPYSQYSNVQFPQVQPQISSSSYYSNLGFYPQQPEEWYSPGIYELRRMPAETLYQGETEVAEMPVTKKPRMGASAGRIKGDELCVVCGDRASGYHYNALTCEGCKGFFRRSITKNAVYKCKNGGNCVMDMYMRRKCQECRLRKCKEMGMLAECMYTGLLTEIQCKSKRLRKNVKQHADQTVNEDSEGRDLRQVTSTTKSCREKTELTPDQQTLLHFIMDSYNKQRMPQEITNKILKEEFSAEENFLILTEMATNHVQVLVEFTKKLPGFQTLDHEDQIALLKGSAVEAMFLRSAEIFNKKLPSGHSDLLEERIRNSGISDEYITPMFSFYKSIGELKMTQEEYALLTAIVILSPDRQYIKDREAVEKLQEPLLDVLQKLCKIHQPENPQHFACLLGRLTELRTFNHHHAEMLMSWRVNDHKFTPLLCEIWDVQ
T2 sequence (P19793 1-462 partner): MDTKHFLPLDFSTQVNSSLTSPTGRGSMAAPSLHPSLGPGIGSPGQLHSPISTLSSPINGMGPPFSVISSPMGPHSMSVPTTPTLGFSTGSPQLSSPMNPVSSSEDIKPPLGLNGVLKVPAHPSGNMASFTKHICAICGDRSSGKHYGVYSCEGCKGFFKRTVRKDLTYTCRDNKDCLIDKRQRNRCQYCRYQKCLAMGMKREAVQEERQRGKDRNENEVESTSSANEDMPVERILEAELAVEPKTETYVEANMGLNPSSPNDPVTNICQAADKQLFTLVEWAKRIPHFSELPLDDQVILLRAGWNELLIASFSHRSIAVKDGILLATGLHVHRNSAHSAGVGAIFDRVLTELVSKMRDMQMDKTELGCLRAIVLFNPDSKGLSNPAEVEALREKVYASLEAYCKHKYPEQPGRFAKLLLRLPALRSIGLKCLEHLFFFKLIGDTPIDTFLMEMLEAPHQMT
In words: FXR luciferase reporter gene assay (FXRE-luc) in HepG2 cells, antagonistic mode. Type of data set: cell-based. Particulars: HepG2; tested compound 10 µM, GW4064 1 µM; read-out: relative response (%) to the model FXR ligand activation (set to be 100%), GW4064 1 µM.

The target in data set [4] is T2, human FXR. Put plainly: FXR luciferase reporter gene assay (FXRE-luc) in HepG2 cells, agonistic mode. The settings on record: 10 µM, 24 h, compound alone. Type of data set: cell-based. As to the method:
FIGURE 3 Interaction of 7-alkylated derivatives of CDCA and 7-ELCA with human FXR in luciferase reporter gene assays. HepG2 cells were transiently co-transfected with the luciferase FXRE-luc construct and with expression pSG5-hFXR, pSG5-hRXRα, and pRL-TK vectors. Cells were treated with indicated concentrations for 24 h alone (A), an agonistic mode) or with 1 µM OCA as an FXR agonist (B–F), an antagonistic mode). […] IC50 values were calculated using concentration-response curves nonlinear fitting in GraphPad software.

Data set [5] deals with GPBAR1 mRNA, NCI-H716 cells. Put plainly: GPBAR1 mRNA expression in differentiated NCI-H716 cells. It counts as cell-based, human. The settings on record: 10 µM, 2 h. As to the method: FIGURE 8 Effects of 7-alkylated derivatives of CDCA and 7-ELCA on the membrane receptor GPBAR1. […]. (B) CRE-luc activation depends on the presence of GPBAR1. (C) Effects of LCA and 7-ELCA (both at 10 µM) on intracellular generation of cAMP in differentiated NCI-H716 cells after 30 min treatment. The increase in cAMP level (ΔcAMP) is presented as the difference between cAMP concertation in the treated sample after subtraction of the cAMP in the nontreated control sample. (D) Concentration-response curves for activation of GPBAR1 by LCA and 7-ELCA. EC50 values were calculated using nonlinear fitting of concentration-response curves. […] (G) 7-ELCA (10 µM) increases GLP-1 secretion in siRNA control but not in siRNA Gpbar1 transfected GLUTag cells after 1 h treatment. GLP-1 was normalized to protein concentration and GPBAR1 mRNA expression to GAPDH mRNA. Data are presented as a fold to control nontreated (NT) samples. Forskolin (FSK, 10 µM) was used as a GPBAR1-independent activator of cAMP production.

Another data set has as its system NCI-H716 cells. In words: GLP-1 secretion (ELISA) in differentiated NCI-H716 cells. It counts as cell-based, human. Particulars: 10 µM, 2 h. Background: An ELISA detects its analyte on a solid surface through an enzyme-linked reagent.

Turning to `CCCCCCCCC[C@@]1(O)C[C@@H]2C[C@H](O)CC[C@]2(C)C2CC[C@@]3(C)C(CC[C@@H]3[C@H](C)CCC(=O)O)C21` (stereo partly drawn) [2k, 3α,7α-Dihydroxy-7β-nonyl-5β-cholan-24-oic acid], the melting point is 78 to 80 °C. The IC50 in the data set with various cell lines was approximately 15 µM. The IC50 in the data set on AML12 was 12.5 µM. The viability at 24 h, 10 µM in “MTS viability assay [1]” was 68 ± 1.4%. The IC50 in the data set on HepaRG is 18.9 µM. Further, in the data set “MTS viability assay [2]” (HepG2 cells, HepG2, 24 h), the viability at 24 h, 10 µM stood at 79.8 ± 2.5%. For the same compound, in “MTS viability assay [2]” (HepaRG cells), the viability at 24 h, 10 µM came out at 71.6 ± 2.8%. The viability at 24 h, 10 µM in the data set “MTS viability assay [2]” (Huh7 cells, Huh7, 24 h) came to 118 ± 4.9%. In the data set on HepG2, the IC50 was approximately 10.9 µM. In the data set on Huh7, the IC50 stood at 21.8 µM. On GPBAR1, the “CRE-luc activation compared to LCA (in words)” value is reported as “weak or no ability to act as agonists of GPBAR1”. In addition, the remaining activity at 10 µM on human FXR [3] is 84.8 ± 1.8%. At human FXR [4], the “FXR activation, agonistic mode (in words)” value was “significant inhibition of the FXR basal activation”.
With `C[C@H](CCC(=O)O)[C@H]1CC[C@H]2[C@@H]3CC[C@@H]4C[C@H](O)CC[C@]4(C)[C@H]3CC[C@]12C` [LCA, 3α-hydroxy-5β-cholan-24-oic acid, reference compound], the “GPBAR1 mRNA expression” value in [5] is “stimulate”. The GLP-1 secretion entry with NCI-H716 cells was “stimulate GLP-1 secretion”.

One may read the IC50 as the midpoint of a concentration-inhibition curve. As usually defined, the viability is a read-out of living cells in per cent, often relative to untreated cells. What is called melting point is the temperature of the solid-liquid transition.
